Test results as given in ChEMBL document CHEMBL3885861, “Open TG-GATES”.

Species: Rattus norvegicus
Experiment: Open TG-GATES - Regimen: Daily Repeat
Format: toxicity, organism-based, Sprague-Dawley
Parameters: regimen Daily Repeat, gender Male, age 6 weeks
Details: in vivo, po, route gavage; for Bas / Eos / Fbg / Hb / Ht / Lym / MCHC / Mono / Neu / Plat / RBC / Ret / WBC / PT / MCV: tissue Blood; for KIDNEY_L / KIDNEY_R / KIDNEY_TOTAL: tissue Kidney; for LIVER: tissue Liver; for ALP / ALT / AST / CRE / DBIL / IP / K / LDH / Na / PL / RALB / TBIL / TC / TG / TP / gamma-GTP / BUN / Ca: tissue Plasma
[1] = 0 mg/kg, 72 h, dose level Control, time 3 day
[2] = 0 mg/kg, […], dose level Control, time 7 day
[3] = 0 mg/kg, […], dose level Control, time 14 day
[4] = 0 mg/kg, […], dose level Control, time 28 day
[5] = 40 mg/kg, 72 h, dose level Low, time 3 day
[6] = 40 mg/kg, […], dose level Low, time 7 day
[7] = 40 mg/kg, […], dose level Low, time 14 day
[8] = 40 mg/kg, […], dose level Low, time 28 day
[9] = 120 mg/kg, 72 h, dose level Middle, time 3 day

**Q.** Which results are given for CCC(C)(C)C(=O)O[C@H]1C[C@@H](C)C=C2C=C[C@H](C)[C@H](CC[C@@H]3C[C@@H](O)CC(=O)O3)[C@H]21 [SIMVASTATIN]?
**A.** TERMINAL_BW [1]: 222.3 g; Bas [1]: 0%; Eos [1]: 1%; Fbg [1]: 227 mg/dL; Hb [1]: 13.3 g/dL; Ht [1]: 40%; Lym [1]: 78.8%; MCHC [1]: 33.1%; Mono [1]: 8.8%; Neu [1]: 11.8%; Plat [1]: 121.1 x10_4/uL; RBC [1]: 621.6 x10_4/ul; Ret [1]: 6.5%; WBC [1]: 98.2 x10_2/uL; KIDNEY_L [1]: 1 g; KIDNEY_R [1]: 1 g; KIDNEY_TOTAL [1]: 2 g; LIVER [1]: 11 g; ALP [1]: 820.2 IU/L; ALT [1]: 36.6 IU/L; AST [1]: 58.8 IU/L; CRE [1]: 0.6 mg/dL; DBIL [1]: 0.004 mg/dL; IP [1]: 7.8 mg/dL; K [1]: 4.6 meq/L; LDH [1]: 81 IU/L; Na [1]: 140.2 meq/L; PL [1]: 143.4 mg/dL; RALB [1]: 3.8 g/dL; TBIL [1]: 0.3 mg/dL; TC [1]: 82.2 mg/dL; TG [1]: 75.6 mg/dL; TP [1]: 5.6 g/dL; gamma-GTP [1]: 1.8 IU/L; TERMINAL_BW [2]: 253.4 g; TERMINAL_BW [3]: 301 g; TERMINAL_BW [4]: 380.8 g; Bas [2]: 0%; Eos [2]: 0.8%; Fbg [2]: 217.4 mg/dL; Hb [2]: 12.8 g/dL; Ht [2]: 38.8%; Lym [2]: 78.6%; MCHC [2]: 33%; Mono [2]: 8.8%; Neu [2]: 12%; PT [2]: 10.9 s; Plat [2]: 115.6 x10_4/uL; RBC [2]: 606.2 x10_4/ul; Ret [2]: 3.8%; WBC [2]: 108.7 x10_2/uL; Bas [3]: 0%; Eos [3]: 1%; Fbg [3]: 222.4 mg/dL; Hb [3]: 13.9 g/dL; Ht [3]: 41.7%; Lym [3]: 78.4%; MCHC [3]: 33.2%; Mono [3]: 7%; Neu [3]: 13.8%; Plat [3]: 123.4 x10_4/uL; RBC [3]: 674.8 x10_4/ul; Ret [3]: 6.2%; WBC [3]: 122.2 x10_2/uL; Bas [4]: 0%; Eos [4]: 1%; Fbg [4]: 227.8 mg/dL; Hb [4]: 14.5 g/dL; Ht [4]: 43.6%; Lym [4]: 85.6%; MCHC [4]: 33.3%; MCV [4]: 57.8 fL; Mono [4]: 4.8%; Neu [4]: 8.6%; PT [4]: 11.7 s; Plat [4]: 120.4 x10_4/uL; RBC [4]: 753.6 x10_4/ul; Ret [4]: 3%; WBC [4]: 132.7 x10_2/uL; KIDNEY_L [2]: 1.1 g; KIDNEY_R [2]: 1.1 g; KIDNEY_TOTAL [2]: 2.2 g; KIDNEY_L [3]: 1.2 g; KIDNEY_R [3]: 1.3 g; KIDNEY_TOTAL [3]: 2.5 g; KIDNEY_L [4]: 1.4 g; KIDNEY_R [4]: 1.4 g; KIDNEY_TOTAL [4]: 2.8 g; LIVER [2]: 12.2 g; LIVER [3]: 14 g; LIVER [4]: 15.9 g; ALP [2]: 953 IU/L; ALT [2]: 34.4 IU/L; AST [2]: 63.4 IU/L; CRE [2]: 0.7 mg/dL; DBIL [2]: 0.012 mg/dL; IP [2]: 7.1 mg/dL; K [2]: 4.7 meq/L; LDH [2]: 81.6 IU/L; Na [2]: 142.4 meq/L; PL [2]: 152.4 mg/dL; RALB [2]: 3.8 g/dL; TBIL [2]: 0.3 mg/dL; TC [2]: 78.6 mg/dL; TP [2]: 5.7 g/dL; gamma-GTP [2]: 1.2 IU/L; ALP [3]: 777.2 IU/L; ALT [3]: 34.6 IU/L; AST [3]: 64.2 IU/L; BUN [3]: 20.6 mg/dL; CRE [3]: 0.6 mg/dL; DBIL [3]: 0.016 mg/dL; IP [3]: 7 mg/dL; K [3]: 4.5 meq/L; LDH [3]: 74.6 IU/L; Na [3]: 140.6 meq/L; PL [3]: 154.4 mg/dL; RALB [3]: 3.8 g/dL; TBIL [3]: 0.3 mg/dL; TC [3]: 73.6 mg/dL; TG [3]: 115.8 mg/dL; TP [3]: 5.9 g/dL; gamma-GTP [3]: 1.4 IU/L; ALP [4]: 672 IU/L; ALT [4]: 31.8 IU/L; AST [4]: 57.6 IU/L; BUN [4]: 20 mg/dL; CRE [4]: 0.7 mg/dL; DBIL [4]: 0.016 mg/dL; IP [4]: 5.9 mg/dL; K [4]: 4.3 meq/L; LDH [4]: 76.6 IU/L; Na [4]: 142.6 meq/L; PL [4]: 147.8 mg/dL; RALB [4]: 3.9 g/dL; TBIL [4]: 0.3 mg/dL; TC [4]: 66 mg/dL; TG [4]: 151.4 mg/dL; TP [4]: 6.1 g/dL; gamma-GTP [4]: 1.6 IU/L; TERMINAL_BW [5]: 221.3 g; Bas [5]: 0%; Eos [5]: 1%; Fbg [5]: 222.8 mg/dL; Hb [5]: 13.6 g/dL; Ht [5]: 41.1%; Lym [5]: 77%; MCHC [5]: 33.2%; Mono [5]: 8.6%; Neu [5]: 13.6%; Plat [5]: 125.7 x10_4/uL; RBC [5]: 639.6 x10_4/ul; Ret [5]: 5.1%; WBC [5]: 97.1 x10_2/uL; KIDNEY_L [5]: 0.9 g; KIDNEY_R [5]: 1 g; KIDNEY_TOTAL [5]: 1.9 g; ALP [5]: 959.2 IU/L; ALT [5]: 40.6 IU/L; AST [5]: 67 IU/L; BUN [5]: 18 mg/dL; CRE [5]: 0.5 mg/dL; DBIL [5]: 0.004 mg/dL; IP [5]: 7.1 mg/dL; K [5]: 4.4 meq/L; LDH [5]: 102.4 IU/L; Na [5]: 140 meq/L; PL [5]: 148.4 mg/dL; RALB [5]: 3.8 g/dL; TBIL [5]: 0.3 mg/dL; TC [5]: 88.2 mg/dL; TG [5]: 69.6 mg/dL; TP [5]: 5.6 g/dL; gamma-GTP [5]: 1.8 IU/L; TERMINAL_BW [6]: 254.5 g; TERMINAL_BW [7]: 301.6 g; TERMINAL_BW [8]: 380.4 g; Bas [6]: 0%; Eos [6]: 0.6%; Fbg [6]: 232.4 mg/dL; Hb [6]: 13.3 g/dL; Ht [6]: 39.9%; Lym [6]: 83%; MCHC [6]: 33.2%; Mono [6]: 6%; PT [6]: 11 s; Plat [6]: 120.4 x10_4/uL; RBC [6]: 619.6 x10_4/ul; Ret [6]: 4.2%; WBC [6]: 123 x10_2/uL; Bas [7]: 0%; Eos [7]: 0.6%; Fbg [7]: 219.4 mg/dL; Hb [7]: 13.9 g/dL; Ht [7]: 41.7%; Lym [7]: 81.6%; MCHC [7]: 33.3%; Mono [7]: 5.6%; Neu [7]: 12.4%; Plat [7]: 119.7 x10_4/uL; RBC [7]: 675.8 x10_4/ul; Ret [7]: 5.3%; WBC [7]: 121.7 x10_2/uL; Bas [8]: 0%; Eos [8]: 1.2%; Fbg [8]: 244.4 mg/dL; Hb [8]: 14.8 g/dL; Ht [8]: 44.7%; Lym [8]: 81%; MCHC [8]: 33%; MCV [8]: 58.3 fL; Mono [8]: 6.4%; Neu [8]: 11.6%; Plat [8]: 111 x10_4/uL; RBC [8]: 766.6 x10_4/ul; Ret [8]: 2.3%; WBC [8]: 112.3 x10_2/uL; KIDNEY_L [6]: 1.1 g; KIDNEY_R [6]: 1.1 g; KIDNEY_TOTAL [6]: 2.2 g; KIDNEY_L [7]: 1.2 g; KIDNEY_R [7]: 1.2 g; KIDNEY_TOTAL [7]: 2.4 g; KIDNEY_L [8]: 1.4 g; KIDNEY_R [8]: 1.4 g; KIDNEY_TOTAL [8]: 2.8 g; LIVER [6]: 12.5 g; LIVER [7]: 13.6 g; LIVER [8]: 16.5 g; ALP [6]: 877.6 IU/L; ALT [6]: 38.4 IU/L; AST [6]: 60.8 IU/L; BUN [6]: 20.6 mg/dL; CRE [6]: 0.6 mg/dL; Ca [6]: 11 mg/dL; DBIL [6]: 0 mg/dL; IP [6]: 6.9 mg/dL; K [6]: 4.9 meq/L; LDH [6]: 112.2 IU/L; Na [6]: 141.4 meq/L; PL [6]: 155 mg/dL; RALB [6]: 3.8 g/dL; TBIL [6]: 0.3 mg/dL; TG [6]: 99.2 mg/dL; TP [6]: 5.9 g/dL; gamma-GTP [6]: 1.8 IU/L; ALP [7]: 819.8 IU/L; ALT [7]: 37 IU/L; AST [7]: 61.4 IU/L; BUN [7]: 20 mg/dL; CRE [7]: 0.6 mg/dL; Ca [7]: 10.8 mg/dL; DBIL [7]: 0.006 mg/dL; IP [7]: 7.1 mg/dL; K [7]: 4.7 meq/L; LDH [7]: 82 IU/L; Na [7]: 140.8 meq/L; PL [7]: 145.6 mg/dL; RALB [7]: 3.9 g/dL; TBIL [7]: 0.3 mg/dL; TC [7]: 76.6 mg/dL; TG [7]: 118.4 mg/dL; TP [7]: 5.9 g/dL; gamma-GTP [7]: 1.8 IU/L; ALP [8]: 751.6 IU/L; ALT [8]: 34.2 IU/L; AST [8]: 60.4 IU/L; BUN [8]: 20.6 mg/dL; CRE [8]: 0.7 mg/dL; DBIL [8]: 0.024 mg/dL; IP [8]: 6.8 mg/dL; K [8]: 4.3 meq/L; LDH [8]: 113.6 IU/L; Na [8]: 143.2 meq/L; PL [8]: 163 mg/dL; RALB [8]: 4 g/dL; TBIL [8]: 0.3 mg/dL; TC [8]: 78.2 mg/dL; TG [8]: 165.2 mg/dL; TP [8]: 6.2 g/dL; gamma-GTP [8]: 1.4 IU/L; TERMINAL_BW [9]: 215.2 g; Bas [9]: 0%; Eos [9]: 1%; Fbg [9]: 217.2 mg/dL; Hb [9]: 13.6 g/dL
